Columns and labels:
Type in all cases: cell-based
[1] = tested on: HCT-15 colon cancer cell line; assay: MTS cell viability / IC50; conditions: Homo sapiens
Method: (§1) The present inventors conducted an in vitro cell base assay to analyze the anticancer activity of Compound A, which is a novel PARP/Tankyrase simultaneous inhibitor, in 18 human colon cancer cell lines (Korean Cell Line Bank and ATCC purchased), and the cell viability and IC50 of the cell lines for Compound A, the novel PARP/Tankyrase simultaneous inhibitor, were measured.
(§2) As the experimental conditions and methods, a total of 18 human colon cancer cell lines were cultured in RPMI1640 (Roswell Park Memorial Institute 1640; 10% FBS, 1% penicillin/streptomycin), and each cell line was cultured in 96 well plate for 2×10^3 per well at 37° C. for 24 hours and the novel PARP/Tankyrase simultaneous inhibitor, Compound A, was diluted by a multiple of 2 at a maximum of 100 μM and a minimum of 0.390625 μM (100 μM, 50 μM, 25 μM, 12.5 μM, 6.25 μM, 3.125 μM, 1.5625 μM, 0.78125 μM and 0.390625 μM). After the treatment, it was cultured at 37° C. for 72 hours. As for the drug treatment group and non-treatment group, the cell viability of each cell line was measured by MTS analysis (Promega, CellTiter 96 AQeous One Solution) and the IC50 of each cell line was measured using the PRISM program.
(§3) The present inventors analyzed the correlation of 18 human colon cancer cell lines, an anti-cancer effect of Compound A which is a novel PARP/Tankyrase simultaneous inhibitor and the genotype of the p53 gene through an in vitro cell base assay in the same experimental method as Example 1 in 18 human colon cancer cell lines.

[2] = tested on: Colo201 colon cancer cell line; assay: MTS cell viability / IC50; conditions: Homo sapiens, COLO 201
Method: as §1, §2, §3

[3] = tested on: Ls1034 colon cancer cell line; assay: MTS cell viability / IC50; conditions: Homo sapiens, LS-1034
Method: as §1, §2, §3

[4] = tested on: SW1417 colon cancer cell line; assay: MTS cell viability / IC50; conditions: Homo sapiens
Method: as §1, §2, §3

[5] = tested on: HCT116 colon cancer cell line; assay: MTS cell viability / IC50; conditions: Homo sapiens, HCT-116
Method: as §1, §2, §3

[6] = tested on: Colo205 colon cancer cell line; assay: MTS cell viability / IC50; conditions: Homo sapiens, COLO 205
Method: as §1, §2, §3

[7] = tested on: SW480 colon cancer cell line; assay: MTS cell viability / IC50; conditions: Homo sapiens
Method: as §1, §2, §3

[8] = tested on: SW48 colon cancer cell line; assay: MTS cell viability / IC50; conditions: Homo sapiens
Method: as §1, §2, §3

[9] = tested on: LoVo colon cancer cell line; assay: MTS cell viability / IC50; conditions: Homo sapiens
Method: as §1, §2, §3

[10] = tested on: DLD-1 colon cancer cell line; assay: MTS cell viability / IC50; conditions: Homo sapiens
Method: as §1, §2, §3

[11] = tested on: HT-29 colon cancer cell line; assay: MTS cell viability / IC50; conditions: Homo sapiens
Method: as §1, §2, §3

[12] = tested on: Colo320HSR colon cancer cell line; assay: MTS cell viability / IC50; conditions: Homo sapiens, COLO-320-HSR
Method: as §1, §2, §3

[13] = tested on: Caco-2 colon cancer cell line; assay: MTS cell viability / IC50; conditions: Homo sapiens
Method: as §1, §2, §3

[14] = tested on: HCT8 human colon cancer cell line; assay: Trypan blue apoptosis with overexpressed mutant LIG4 (G833A or T1704C); conditions: HCT8 overexpressing LIG4 mutant G833A or T1704C vs control group (empty); 25 μM and 50 μM, 48 hours
Text: In order to analyze the degree of apoptosis of Compound A, which is a novel PARP/Tankyrase simultaneous inhibitor, when the p53 genotype is a normal type and an LIG4 genotype is a mutant type, the present inventors treated a novel PARP/Tankyrase simultaneous inhibitor, Compound A, and the competitive drug PARP inhibitor, olaparib, while overexpressing an LIG4 mutant type in the HCT8 human colon cancer cell line in which the p53 gene is a normal type and an LIG4 genotype is a normal type. Then, the number of cells was measured by trypan blue staining assay to confirm the degree of apoptosis. […] After 48 hours of culturing, the number of cells was measured by trypan blue staining and the degree of apoptosis was confirmed.
The present inventors conducted an experiment in the same manner as Example 9 to analyze the degree of apoptosis and DNA damage of Compound A, which is a novel PARP/Tankyrase simultaneous inhibitor, when the p53 genotype is a mutant type and an LIG4 genotype is a mutant type. The number of cells was measured by trypan blue staining method and the degree of apoptosis was confirmed. […] It was washed with TBS-T buffer three times for 15 minutes to induce luminescence of PDVF membrane using ECL buffer solution to develop protein expression on each anti-body using an X-ray film.

Q: What does the source list for `CCOc1cc(CN(C)C)cc2[nH]c(=O)c3c(c12)NCCC3` [Compound A, 8-[(dimethylamino)methyl]-10-ethoxy-1,2,3,4-tetrahydrobenzo[h][1,6]naphthyridin-5(6H)-one]?
A: IC50 ([1]; HCT-15, p53 Mutant type cell line): > 100 µM; IC50 ([1]; HCT-15, MTS, 72 hours): > 100 µM; IC50 ([2]; Colo201, p53 Mutant type cell line): 28.4 µM; IC50 ([2]; Colo201, MTS, 72 hours): 28.4 µM; IC50 ([3]; LS1034, p53 Mutant type cell line): > 100 µM; IC50 ([3]; Ls1034, MTS, 72 hours): > 100 µM; IC50 ([4]; SW1417, p53 Mutant type cell line): > 100 µM; IC50 ([4]; SW1417, MTS, 72 hours): > 100 µM; IC50 ([5]; HCT116, p53 Wild-type cell line): 13.2 µM; IC50 ([5]; HCT116, MTS, 72 hours): 13.2 µM; IC50 ([6]; Colo205, p53 Mutant type cell line): 24.4 µM; IC50 ([6]; Colo205, MTS, 72 hours): 24.4 µM; IC50 ([7]; SW480, p53 Mutant type cell line): > 100 µM; IC50 ([7]; SW480, MTS, 72 hours): > 100 µM; IC50 ([8]; SW48, p53 Wild-type cell line): > 100 µM; IC50 ([8]; SW48, MTS, 72 hours): > 100 µM; IC50 ([9]; MTS, 72 hours): 18.6 µM; IC50 ([9]; p53 Wild-type cell line): 18.6 µM; IC50 ([10]; DLD-1, p53 Mutant type cell line): 85.6 µM; IC50 ([10]; DLD-1, MTS, 72 hours): 85.6 µM; IC50 ([11]; HT29, p53 Mutant type cell line): 32.2 µM; IC50 ([11]; MTS, 72 hours): 32.2 µM; IC50 ([12]; Colo320, MTS, 72 hours): 8.27 µM; IC50 ([12]; Colo320HSR, p53 Mutant type cell line): 8.27 µM; IC50 ([13]; Caco-2, p53 Mutant type cell line): 19.2 µM; IC50 ([13]; Caco-2, MTS, 72 hours): 19.2 µM; degree of apoptosis (trypan blue cell count) [14]: apoptosis was increased
